Values quoted from earlier work in patent US20060078922A1, “Novel purified polypeptides from haemophilus influenzae” (Affinium Pharmaceuticals, Inc., priority 2003, published 2006).

Biological target: phosphopantetheine adenyltransferase (Escherichia coli, UniProt P0A6I6)
Conditions: qualitative statement, species not given

Sequence of phosphopantetheine adenyltransferase (P0A6I6 whole entry): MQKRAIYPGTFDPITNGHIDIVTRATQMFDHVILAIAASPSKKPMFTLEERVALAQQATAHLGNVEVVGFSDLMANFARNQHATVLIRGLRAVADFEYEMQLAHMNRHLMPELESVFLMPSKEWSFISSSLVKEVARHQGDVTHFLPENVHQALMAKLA

CC(C)(COP(=O)(O)OP(=O)(O)OC[C@H]1O[C@@H](n2cnc3c(N)ncnc32)[C@H](O)[C@@H]1OP(=O)(O)O)[C@@H](O)C(=O)NCCC(=O)NCCS [Coenzyme-A]
inhibition of phosphopantetheine adenyltransferase: known to inhibit
